Entries after “also recorded” stand apart in the source; their conditions may differ. Where two headings read alike, the source gives them in different places.
How the values were obtained:
[1] = tested on: multiple myeloma cell lines; set-up: method as in Yasui et al. (2007) [63]; details: 48 h, ref Yasui et al. (2007) [63]; cited from earlier work
MCF‐7 [2] = details: cited from earlier work
MDA‐MB‐231 [3] = details: MDA‐MB‐231, 24 h, ref Raymond et al. (1997) [66]; cited from earlier work
COX‐2 [4] = test: Western blot COX‐2 protein expression, MDA‐MB‐231; type: cell-based, human; details: 24 h
Procedure: (§1) Total protein levels were measured using the Take3 Multi‐Volume Plate (Synergy H1, BioTek Instruments Inc., Vermont, USA). In accordance with the classical protocol, transferred proteins were exposed to the following primary antibodies: Beta‐actin (NB600‐501, Novus Biologicals), Bax (SPM336, NBP2‐32809), Bcl‐2 (100/D5, NBP2‐15200), cleaved PARP (194C1439, NBP2‐27335), and COX‐2 (D‐12:sc‐166475, Santa Cruz). The bands were visualized with chemiluminescent HRP substrates (Western Bright ECL‐Advansta, K‐12045‐050). Using a chemiluminescence imaging system (Celvin S, BioStep), the relative quantification was done based on the level of β‐actin proteins.

MCF‐7 [5] = test: Annexin V/PI staining, Tali image‐based cytometry, MCF‐7; type: cell-based, human; details: MCF‐7, 24 h
Excerpt: (§2) To assess apoptosis and cell death, cells were stained with Annexin V‐PI dyes (Tali Apoptosis Kit‐Annexin V Alexa Fluor 488 and PI‐, Molecular Probes A10788, Invitrogen) and quantified using Tali Image‐Based Cytometer (Invitrogen) and fluorescence microscopy (Olympus CKX41 Inverted Phase Contrast Fluorescence Microscope furbished with reflected fluorescence illuminator CKX‐RFA).
(§3) To assess whether our compounds produce their cytotoxic effects through induction of apoptosis, apoptosis was investigated using Annexin V/PI labeling and MMP methods (Figures 4A−C). In addition, by utilizing TALI image‐based cytometry and fluorescent microscopy, the number of cells was analyzed for different concentrations of agents (Table 4).

L‐929 = test: Mitochondrial membrane potential (JC‐1) apoptosis assay, L‐929; type: cell-based, mouse; details: L‐929, 50 μM, 24 h, MMP assay
Procedure: (§4) Apoptosis was also investigated by evaluating mitochondrial membrane potential changes (MMP assay). MCF‐7, MDA‐MB‐231, and L‐929 cells were stained with JC‐1 dye according to the manufacturer's protocols (JC‐1 MMP Assay Kit, KA1324, Abnova). The apoptotic to healthy cell ratio was calculated using absorbances collected from two different fluorescence channels (535/595 for healthy cells, 485/535 for apoptotic cells) (Synergy H1, Biotech Instruments Inc., Vermont, USA).

Bax/Bcl‐2 ratio = test: Western blot Bax/Bcl‐2 ratio in breast cancer cell lines; type: cell-based, human; details: 50 and 75 µM, 24 h
Procedure: as §1

MDA‐MB‐231 [6] = test: Annexin V/PI staining, Tali image‐based cytometry, MDA‐MB‐231; type: cell-based, human; details: MDA‐MB‐231, 24 h
Excerpt: as §2, §3

COX‐2 [7] = test: Western blot COX‐2 protein expression, MCF‐7; type: cell-based, human; details: 24 h
Procedure: as §1

c‐PARP = test: Western blot cleaved PARP, MDA‐MB‐231; type: cell-based, human; details: MDA‐MB‐231, 24 h, all concentrations (50 and 75 µM); not measurable in MCF‐7
Procedure: as §1

[8] = tested on: L‐929 mouse fibroblast cell line; test: MTT cell viability assay, L‐929 control fibroblasts; type: cell-based; details: Mus musculus
Excerpt: (§5) MCF‐7, MDA‐MB‐231, and L‐929 mouse fibroblast cell lines were obtained from the American Type Culture Collection (ATCC, Manassas, Virginia, USA). MCF‐7 is a hormone‐responsive, differentiated mammary epithelium cell line with an ER+, PR+, and HER2‐ pattern (ATCC, HTB‐22). MDA‐MB‐231 is a triple‐negative differentiated mammary epithelium cell line (ATCC, HTB‐26). The L‐929 mouse fibroblast cell line is derived from the normal subcutaneous connective tissue of a mouse and is commonly used in cytotoxicity assays (ATCC, CCL‐1). All cell lines were cultured in DMEM medium (Dulbecco's Modified Eagle Medium, Gibco), supplemented with 10% fetal bovine serum (Gibco), 1% glutamine, and penicillin/streptomycin (Gibco) in a humidified atmosphere containing 5% CO2 at 37°C. Cell viability was tested using Trypan blue staining.
(§6) The MTT [3‐(4,5‐dimethylthiazol‐2‐yl)−2,5‐diphenyltetrazolium bromide] assay is a colorimetric assay for determining cell metabolic activity. In the MTT assay, the yellow dye MTT that dissolves in water is changed by mitochondrial reductase into a purple formazan that is non‐soluble. The water‐insoluble formazan produced is solubilized in a solubilization buffer, and absorbances are detected.
(§7) In 96‐well plates, the cells were cultivated at a density of 5 × 10^3 cells/well using 100 µL medium. […] 10 μL of the MTT labeling reagent (final concentration 0.5 mg/mL) were added to each well at the end of the incubation periods, and the wells were incubated for an additional 4 h. Next, each well received 100 μL of solubilization buffer (10% SDS in 0.01 M HCl) and was overnight incubated, and the absorbance of formazan products was evaluated at 550 nm using a multi‐mode microplate reader (Synergy H1, Biotech Instruments Inc., Vermont, USA). The results were normalized relative to the absorbances of calculated percent concentrations of DMSO. All tests involved three replicates with three independent experiments.
(§8) All statistical evaluations, including t‐tests and IC50 values, were calculated using the GraphPad Prism software tool (v6.0, GraphPad Software Inc., San Diego, USA). Statistical significance was defined as p ˂ 0.05 (*p < 0.05, **p < 0.01, ***p < 0.001, ****p < 0.0001).

MDA‐MB‐231 [9] = test: MTT cell viability assay, MDA‐MB‐231; type: cell-based, human; details: for IC50: Homo sapiens, MTT
Excerpt: as §5, §6, §7, §8

MCF‐7 [10] = test: Mitochondrial membrane potential (JC‐1) apoptosis assay, MCF‐7; type: cell-based, human; details: MCF‐7, 50 μM, 24 h, MMP assay
Procedure: as §4

MCF‐7 [11] = test: MTT cell viability assay, MCF‐7; type: cell-based, human; details: for IC50: Homo sapiens, MCF7, MTT
Excerpt: as §5, §6, §7, §8

MDA‐MB‐231 [12] = test: Mitochondrial membrane potential (JC‐1) apoptosis assay, MDA‐MB‐231; type: cell-based, human; details: MDA‐MB‐231, 50 μM, 24 h, MMP assay
Procedure: as §4

[13] = tested on: MCF‐7, MDA‐MB‐231, and L‐929; test: MTT cell viability assay, statements over all cell lines; type: cell-based; details: 25 µM; MCF‐7, MDA‐MB‐231 and L‐929; not dose‐dependent
Excerpt: as §5, §6, §7
All statistical evaluations, including t‐tests and IC50 values, were calculated using the GraphPad Prism software tool (v6.0, GraphPad Software Inc., San Diego, USA). […]

[14] = MDA-MB-231, 24 h, MDA‐MB‐231, 24 h
[15] = MDA-MB-231, 48 h, MDA‐MB‐231, 48 h
[16] = MDA‐MB‐231 in comparison to L‐929, 24 h
[17] = MDA‐MB‐231 in comparison to L‐929, 48 h
[18] = MCF‐7 in comparison to L‐929, 24 h
[19] = MCF‐7 in comparison to L‐929, 48 h

SMILES: CCc1cc(Br)cc2c3c([nH]c12)C(CC)(CCO)OCC3 (stereo not drawn) [Etodolac analog SDX‐308]
- IC50 [1]: 23.8 µM

SMILES: CC(C)Cc1ccc(C(C)C(=O)O)cc1 (stereo not drawn) [Ibuprofen]
- IC50 (MCF‐7 [2]; MCF‐7, 48 h, ref Daniel Pedro‐Hernández et al. (2020) [67]): 92.1 µM

SMILES: O=C(O)C(=O)O.[NH-][C@@H]1CCCC[C@H]1[NH-].[Pt+2] [Oxaliplatin]
- IC50 (MCF‐7 [2]; MCF‐7, 24 h, ref Raymond et al. (1997) [66]): 7.4 µM
- IC50 (MDA‐MB‐231 [3]): 17.9 µM

SMILES: CCc1cccc2c3c([nH]c12)C(CC)(CC(=O)NN1C(=O)CSC1c1c(F)cccc1F)OCC3 (stereo not drawn) [SGK 217, 3‐(2‐(1,8‐Diethyl‐1,3,4,9‐tetrahydropyrano[3,4‐b]indole‐1‐yl)acetylhydrazono)‐2‐(2,6‐difluorophenyl)‐4‐thiazolidinone]
- Decrease in COX‐2 protein expression compared to the control group (COX‐2 [4]; MDA‐MB‐231, 50 µM): 61%
- Decrease in COX‐2 protein expression compared to the control group (COX‐2 [4]; MDA‐MB‐231, 75 µM): 84%
- Apoptotic cells (MCF‐7 [5]; 25 µM): 6%
- Dead cells (MCF‐7 [5]; 25 µM): 7%
- Live cells (MCF‐7 [5]; 25 µM): 87%
- Apoptotic cells (MCF‐7 [5]; 50 µM): 16%
- Dead cells (MCF‐7 [5]; 50 µM): 10%
- Live cells (MCF‐7 [5]; 50 µM): 74%
- Apoptotic cells (MCF‐7 [5]; 75 µM): 18%
- Dead cells (MCF‐7 [5]; 75 µM): 27%
- Live cells (MCF‐7 [5]; 75 µM): 55%
- Increase in apoptosis compared to the control group (L‐929): 3%
- Bax/Bcl‐2 ratio change (Bax/Bcl‐2 ratio): significantly rise
- Apoptotic cells (MDA‐MB‐231 [6]; 25 µM): 0%
- Dead cells (MDA‐MB‐231 [6]; 25 µM): 7%
- Live cells (MDA‐MB‐231 [6]; 25 µM): 93%
- Apoptotic cells (MDA‐MB‐231 [6]; 50 µM): 23%
- Dead cells (MDA‐MB‐231 [6]; 50 µM): 11%
- Live cells (MDA‐MB‐231 [6]; 50 µM): 66%
- Decrease in COX‐2 protein expression compared to the control group (COX‐2 [7]; MCF‐7, 50 µM): 56%
- Decrease in COX‐2 protein expression compared to the control group (COX‐2 [7]; MCF‐7, 75 µM): 85%
- c‐PARP (89‐kD fragment) protein change (c‐PARP): consistent activation; also recorded: significant increase
- IC50 ([8]; L929, 24 h, L‐929, 24 h): 72 ± 3.2 µM
- IC50 ([8]; L929, 48 h, L‐929, 48 h): 29.6 ± 0.94 µM
- IC50 ([8]; L929, 72 h, L‐929, 72 h): 26.3 ± 0.112 µM
- IC50 (MDA‐MB‐231 [9]; [14]): 36 ± 1.6 µM
- IC50 (MDA‐MB‐231 [9]; [15]): 13.8 ± 1.6 µM
- IC50 (MDA‐MB‐231 [9]; MDA-MB-231, 72 h, MDA‐MB‐231, 72 h): 14.6 ± 1.4 µM
- Selectivity index (SI) (MDA‐MB‐231 [9]; [16]): 2.0
- Selectivity index (SI) (MDA‐MB‐231 [9]; [17]): 2.1
- Selectivity index (SI) (MDA‐MB‐231 [9]; MDA‐MB‐231 in comparison to L‐929, 72 h): 1.8
- Increase in apoptosis compared to the control group (MCF‐7 [10]): 51%
- IC50 (MCF‐7 [11]; MCF‐7, 24 h): 18 ± 3.4 µM
- IC50 (MCF‐7 [11]; MCF‐7, 48 h): 12.2 ± 2 µM
- IC50 (MCF‐7 [11]; MCF‐7, 72 h): 26.7 ± 4.8 µM
- Selectivity index (SI) (MCF‐7 [11]; [18]): 4.0
- Selectivity index (SI) (MCF‐7 [11]; [19]): 2.4
- Selectivity index (SI) (MCF‐7 [11]; MCF‐7 in comparison to L‐929, 72 h): 1
- Increase in apoptosis compared to the control group (MDA‐MB‐231 [12]): 85%

SMILES: CCc1cccc2c3c([nH]c12)C(CC)(Cc1n[nH]c(=S)n1Cc1ccccc1)OCC3 (stereo not drawn) [SGK 242, 5‐[(1,8‐Diethyl‐1,3,4,9‐tetrahydropyrano[3,4‐b]indole‐1‐yl)methyl]‐4‐benzyl‐2,4‐dihydro‐3H‐1,2,4‐triazole‐3‐thione]
- Toxicity on all cell lines [13]: severe toxicity
- IC50 ([8]; L929, 24 h, L‐929, 24 h): 38 ± 8.05 µM
- IC50 ([8]; L929, 48 h, L‐929, 48 h): 44.2 ± 2.45 µM
- IC50 (MDA‐MB‐231 [9]; [14]): 31 ± 2.5 µM
- IC50 (MDA‐MB‐231 [9]; [15]): 24 ± 1.2 µM
- Selectivity index (SI) (MDA‐MB‐231 [9]; [16]): 1.2
- Selectivity index (SI) (MDA‐MB‐231 [9]; [17]): 1.8
- IC50 (MCF‐7 [11]; MCF‐7, 24 h): 22 ± 0.1 µM
- IC50 (MCF‐7 [11]; MCF‐7, 48 h): 12 ± 3.3 µM
- Selectivity index (SI) (MCF‐7 [11]; [18]): 1.7
- Selectivity index (SI) (MCF‐7 [11]; [19]): 3.6

Source: PMC12337082 (Journal of Biochemical and Molecular Toxicology, 2025)
